From ChEMBL document CHEMBL3797073 (Bioorg Med Chem, 2016)

How the values were obtained:
Prothrombin [1] = molecular target: T1, Prothrombin (Homo sapiens, UniProt P00734); assay: Inhibition of human thrombin at 1 ug/ml preincubated for 10 mins followed by Ac-FVR-AMC substrate addition measured within 10 mins by fluorescence assay relative to control
Rattus norvegicus = assay: Anticoagulant activity in Sprague-Dawley rat assessed as inhibition of arteriovenous thrombosis at 0.5 mg/ml administered 3 days prior to testing measured on day 4 relative to control; format: functional
Prothrombin [2] = molecular target: T1, Prothrombin; assay: Inhibition of human thrombin preincubated for 10 mins followed by Ac-FVR-AMC substrate addition measured within 10 mins by fluorescence assay

inhibition (Prothrombin [1]) | IC50 (Prothrombin [2]; read-out: IC50) | IC50 (Prothrombin [2]; read-out: pIC50 (converted)) | SMILES | inhibition (INH) (Rattus norvegicus)
91.9% | 7.18 nM | 7.24 nM | CCn1c(CNc2ccc(C(=N)N)cc2F)nc2cc(C(=O)N(CCC(=O)O)c3ccc(C)cc3C)ccc21 | –
91.6% | 10.1 nM | – | CCn1c(CNc2ccc(C(=N)N)cc2F)nc2cc(C(=O)N(CCC(=O)O)c3ccc(C)c(C)c3)ccc21 | –
88.2% | – | – | CCn1c(CNc2ccc(C(=N)N)cc2F)nc2cc(C(=O)N(CCC(=O)O)c3ccc(C)cc3)ccc21 | –
93% | 5.66 nM | 5.62 nM | CCn1c(CNc2ccc(C(=N)N)cc2F)nc2cc(C(=O)N(CCC(=O)O)c3cc(C)ccc3C)ccc21 | –
92.5% | 3.21 nM | 3.24 nM | CCn1c(CNc2ccc(C(=N)N)cc2F)nc2cc(C(=O)N(CCC(=O)O)c3ccc(F)cc3F)ccc21 | 76.23%
92.5% | 4.18 nM | 4.17 nM | CCn1c(CNc2ccc(C(=N)N)cc2F)nc2cc(C(=O)N(CCC(=O)O)c3ccc(F)c(C)c3)ccc21 | –
93.8% | 9.17 nM | 9.12 nM | CCn1c(CNc2ccc(C(=N)N)cc2F)nc2cc(C(=O)N(CCC(=O)O)c3ccc(F)c(F)c3)ccc21 | –
87.5% | – | – | CCn1c(CNc2ccc(C(=N)N)cc2F)nc2cc(C(=O)N(CCC(=O)O)c3ccc(C)c(F)c3)ccc21 | –
92.8% | 5.44 nM | 5.5 nM | CCn1c(CNc2ccc(C(=N)N)cc2F)nc2cc(C(=O)N(CCC(=O)O)c3cccc(C)c3)ccc21 | –

Continued, molecule first:

SMILES | inhibition (Prothrombin [1]) | IC50 (Prothrombin [2]; read-out: IC50) | IC50 (Prothrombin [2]; read-out: pIC50 (converted)) | inhibition (INH) (Rattus norvegicus)
CCn1c(CNc2ccc(C(=N)N)cc2F)nc2cc(C(=O)N(CCC(=O)O)c3cc(F)cc(F)c3)ccc21 | 91.2% | – | – | –
Cn1c(CNc2ccc(C(=N)N)cc2)nc2cc(C(=O)N(CCC(=O)O)c3ccccn3)ccc21 [DABIGATRAN] | – | – | – | 85.07%
CCn1c(CNc2ccc(C(=N)N)cc2F)nc2cc(C(=O)N(CCC(=O)O)c3cccc(C)n3)ccc21 | 93.6% | 2.16 nM | 2.14 nM | 84.66%
CCn1c(CNc2ccc(C(=N)N)cc2F)nc2cc(C(=O)N(CCC(=O)O)c3c(C)cccc3C)ccc21 | 92.5% | 1.81 nM | 1.82 nM | –
CCn1c(CNc2ccc(C(=N)N)cc2F)nc2cc(C(=O)N(CCC(=O)O)c3cc(C)cc(C)c3)ccc21 | 89% | – | – | –
CCn1c(CNc2ccc(C(=N)N)cc2F)nc2cc(C(=O)N(CCC(=O)O)c3cc(C)ccn3)ccc21 | 92% | 3.69 nM | 3.72 nM | –
CCn1c(CNc2ccc(C(=N)N)cc2F)nc2cc(C(=O)N(CCC(=O)O)c3cccc(C)c3C)ccc21 | 93.2% | 4.92 nM | 4.9 nM | –
